Source: patent US20220000971A1, “METHODS AND COMPOUNDS FOR TARGETING SORTILIN RECEPTORS AND INHIBITING VASCULOGENIC MIMICRY” (TRANSFERT PLUS, S.E.C., priority 2018, published 2022)
pIC50: −log10 of the molar value. Several values for one entry are separate records, joined by “and”; a condition that tells them apart may be missing. Identical values can stand only once. Entries after “also recorded” stand apart in the source; their conditions may differ. Like-named read-outs stand apart in the source and are kept apart here. Where a SMILES comes first, the peptide text is derived from it. [ ]: non-standard residue; d: D form. The star is where a group is joined. X1 = CC(=O)O[C@@]12CO[C@@H]1C[C@H](O)[C@@]1(C)C(=O)[C@H](O)C3=C(C)[C@@H](OC(=O)[C@H](OC(=O)CCC(=O)*)[C@@H](NC(=O)OC(C)(C)C)c4ccccc4)C[C@@](O)([C@@H](OC(=O)c4ccccc4)[C@H]21)C3(C)C; Nle = CCCC[C@H](N)C(=O)O

What was measured:
[1] = tested on: ES-2 ovarian cancer cells; assay: Real-time cell migration, xCELLigence (ES-2); format: cell-based, human
Description: (§1) In vitro vasculogenic mimicry of cancer cells was assessed using a Matrigel tube formation assay. In brief, each well of a 96-well plate was pre-coated with Matrigel. ES-2 ovarian cancer or MDA-MB-231 TNBC cell suspensions were seeded on top of Matrigel. 3D-tubular structures were analyzed and quantified using Wimasis Analysis software. Real-time cell migration was evaluated using the ×CELLigence system. Sortilin gene silencing was performed with specific siRNA. Effects of Doxorubicin-KA-peptide conjugate (DoxKA) KBA-106 represented by formula Acetyl-GVRAK(doxorubicin)AGVRN(Nle)FK(doxorubicin)SESY (Formula (XXVIII)) and Docetaxel-KA-peptide conjugate (DoceKA) represented by formula Acetyl-GVRAK(docetaxel)AGVRN(Nle)FK(docetaxel)SESY (Formula (XXIII)) targeting Sortilin on vasculogenic mimicry and cell migration were determined.

[2] = Blood cell / neutrophil counts after treatment; format: in vivo, nude mice
Text: FIG. 27A illustrates the effect on lymphocytes after 3 treatments with different concentrations of Docetaxel or DoceKA. FIG. 27B illustrates the effect on platelets after 3 treatments with different concentrations of Docetaxel or DoceKA. FIG. 27C illustrates the effect on neutrophils after 3 treatments with different concentrations of Docetaxel or DoceKA. IP means intraperitoneal administration, while IV means intravenous delivery.
FIG. 28 depicts the preliminary toxicity data on DoceKA, specifically, the neutrophils count (g/L) after DoceKA treatments at different dosages of Docetaxel or DoceKA.

MDA-MB-231 cells [3] = assay: Real-time cell migration, xCELLigence (MDA-MB-231); format: cell-based
Description: as §1
(§2) MDA-MB-231 cells were used as a TNBC cell model for in vitro and in vivo xenograft (CD1 nude mice) assays. Cell migration was assessed using the ×CELLigence real-time system, whereas MTT assay was used for cell proliferation analysis. Apoptosis biomarkers expression was assessed by immunoblotting.

MDA-MB-231 cells [4] = assay: MTT cell proliferation assay; format: cell-based
Description: as §2

tubulin = assay: Tubulin / microtubule polymerization; format: biochemical
Description: FIGS. 23A and 23B depict the DoceKA impact on tubulin polymerization. More particularly, FIG. 23A illustrates cells treated with vehicle (DMSO), 2 μM Docetaxel or 1 μM DoceKA for 24 hours, fixed and immunostained with anti-a-tubulin antibody and imaged using confocal microscopy. […] FIG. 23B illustrates that in a fluorescence-based polymerization assay, the effect of Docetaxel (2 μM) and DoceKA (1 μM) on polymerization of purified tubulin was examined in vitro. Paclitaxel (2 μM) and Vinblastine (2 μM) were added as controls for tubulin-polymerizing and tubulin-depolymerizing agents, respectively. Tubulin assembly into microtubules was determined by an increase in fluorescence emission (Ex. 340-360 nm±20 nm; Em. 410-460 nm±20 nm).

MDA-MB-231 cells [5] = assay: Cell death / apoptosis (Annexin V-FITC/PI); format: cell-based
Description: MDA-MB-231 cells treated for 5 hours with control (vehicle) or with increasing concentrations of Docetaxel or DoceKA. Cells were then harvested and the rate of apoptosis was determined following staining with Annexin V-FITC and propidium iodide (PI). Cells were analyzed by flow cytometry.

[6] = tested on: ES-2 ovarian cancer cells; assay: In vitro vasculogenic mimicry, Matrigel tube formation assay (ES-2); format: cell-based, human
MDA-MB-231 TNBC cells = assay: In vitro vasculogenic mimicry, Matrigel tube formation assay (MDA-MB-231); format: cell-based; conditions: MDA-MB231; FIG. 43
Description: as §1

[7] = tested on: MDA-MB-231 xenograft tumor; assay: MDA-MB-231 xenograft tumor model; format: in vivo, CD1 nude mice; conditions: murine MDA-MB-231 xenograft
Description: as §2

[8] = tested on: IL-6, Survivin, Bcl-xL and mutant p53; assay: Immunoblotting of pro-survival biomarkers; format: cell-based; conditions: MDA-MB-231
Text: FIGS. 22A and 22B illustrate the molecular mechanism of cell death induction by DoceKA in MDA-MB-231 cells. FIG. 22A illustrates the immunoblotting experiment showing the expression level of IL-6, Survivin, Bcl-xi and mutated p53 in MDA-MB-231 cell after treatment with Docetaxel and DoceKA. GAPDH was used as a control. FIG. 22B data are representative of three independent experiments and the bar graphs show the densitometric quantification of IL-6, Survivin, Bcl-xL and p53 expression as compared to GAPDH. The mean value of the control group was set to be 1.0.
as §2

[9] = DoceKA pharmacokinetics in mice (plasma, UPLC/MS); format: in vivo, CD-1 mice; conditions: for half-life: iv, 50 mg/kg
Description: FIG. 29A illustrates the plasma concentration for DoceKA and released Docetaxel (BDL) at progressive time intervals. FIG. 29B illustrates the PK in CD-1 mice. […] Plasma was collected at different time points. DoceKA and released Docetaxel were extracted with acetonitrile. DoceKA and released Docetaxel, were quantified by UPLC/MS using Paclitaxel as the internal standard: 2 μl and 10 μl of supematants were injected for DoceKA and Docetaxel directly without lyophilization.
PK data on Docetaxel were obtained from refs. 50 and 51. PK analysis for DoceKA was carried out using PK solutions software. Docetaxel PK in mice is biphasic and linear between 13-62 mg/kg. […] Both have similar half-lives. DoceKA has a lower clearance (CL) and Volume of distribution (Vd). These preliminary data need to be confirmed with more data (shorter and longer time points).

[10] = cited from earlier work
[11] = tested on: MDA-MB-231 breast cancer cells; assay: [3H]-Thymidine Incorporation assay; format: cell-based; conditions: Homo sapiens, GraphPad Prism
Description: FIG. 19 depicts the in vitro anticancer properties of DoceKA against MDA-MB-231 breast cancer cells as determined using the [3H]-Thymidine Incorporation assay. Incorporated [3H]-Thymidine was plotted for each drug concentration. IC50 values (nM) were calculated using the GraphPad Prism software. […] is a set of graphs depicting the cell-cycle distribution of MDA-MB231 cells determined based on cellular DNA content using flow cytometry after 24 hours of treatment with 2 μM Docetaxel or 1 μM DoceKA.

[12] = CD-1, mouse, plasma, DoceKA 50 mg/kg, intravenous, preliminary data

For `CCCC[C@H](NC(=O)[C@H](CC(N)=O)NC(=O)[C@H](CCCNC(=N)N)NC(=O)[C@@H](NC(=O)CNC(=O)[C@H](C)NC(=O)[C@H](CCCCNC(=O)CCC(=O)O[C@@H](C(=O)O[C@H]1C[C@@]2(O)[C@@H](OC(=O)c3ccccc3)[C@@H]3[C@]4(OC(C)=O)CO[C@@H]4C[C@H](O)[C@@]3(C)C(=O)[C@H](O)C(=C1C)C2(C)C)[C@@H](NC(=O)OC(C)(C)C)c1ccccc1)NC(=O)[C@H](C)NC(=O)[C@H](CCCNC(=N)N)NC(=O)[C@@H](NC(=O)CNC(C)=O)C(C)C)C(C)C)C(=O)N[C@@H](Cc1ccccc1)C(=O)N[C@@H](CCCCNC(=O)CCC(=O)O[C@@H](C(=O)O[C@H]1C[C@@]2(O)[C@@H](OC(=O)c3ccccc3)[C@@H]3[C@]4(OC(C)=O)CO[C@@H]4C[C@H](O)[C@@]3(C)C(=O)[C@H](O)C(=C1C)C2(C)C)[C@@H](NC(=O)OC(C)(C)C)c1ccccc1)C(=O)N[C@@H](CO)C(=O)N[C@@H](CCC(=O)O)C(=O)N[C@@H](CO)C(=O)N[C@@H](Cc1ccc(O)cc1)C(=O)O` [DoceKA, Acetyl-GVRAK(docetaxel)AGVRN(Nle)FK(docetaxel)SESY] (Ac-GVRAK(X1)AGVRN[Nle]FK(X1)SESY-OH), the cell migration [1] was “inhibited”, the neutrophils count ([2]; after six injections) was “remained within normal limits” and the “effect on blood cells (lymphocytes, platelets, neutrophils)” value ([2]; nude mice, 3 treatments) was “absence of effect”. The cell migration (MDA-MB-231 cells [3]) was “inhibited; also recorded: potent anti-proliferative and anti-migratory activities”, the cell proliferation (MDA-MB-231 cells [4]) was “potent anti-proliferative and anti-migratory activities” and the microtubules polymerization (tubulin) was “altered microtubules polymerization”. For the same molecule, the “cell death induction compared to free Docetaxel” value (MDA-MB-231 cells [5]) was “faster and higher cell death mechanisms”, the “concentration at which total number of loops and total tube length are inhibited” value ([6]; ES-2 on Matrigel) was “low pM concentration; also recorded: very low pM concentration; also recorded: inhibited at low nM concentrations” and the “vasculogenic mimicry inhibition compared to unconjugated drug” value ([6]; ES-2 on Matrigel, 12 hrs, equivalent concentration of free drug (Docetaxel 600 pM)) was “stronger inhibition of vasculogenic mimicry than unconjugated free drugs; also recorded: stronger inhibition of 3Dtubulare structures than Docetaxel alone”. The “IC50 values for vasculogenic mimicry inhibition” value ([6]; Example 2, ovarian cancer and TNBC cells) was “low nM to pM”, the “vasculogenic mimicry inhibition compared to Docetaxel alone” value (MDA-MB-231 TNBC cells) was “stronger inhibition of vasculogenic mimicry” and the “tumor regression and survival compared to Docetaxel” value [7] was “greater tumor regression capacity with a prolonged survival”. The “expression of pro-survival biomarkers” value [8] was “down-regulation of IL-6, Survivin, Bcl-xL and mutant p53”, the half-life ([9]; CD-1, mouse, plasma, DoceKA 50 mg/kg, intravenous, preliminary data, read-out: t½ adsorption distribution) was 6 to 20 min and the half-life ([9]; CD-1, mouse, plasma, DoceKA 50 mg/kg, intravenous, preliminary data, read-out: t½ elimination) was 90 to 150 min. The AUC [9, 12] was 614 µM·h and 2.3e+06 ng·h/mL, the Cmax [9, 12] was 1.6e+06 ng/mL and 437 µM and the Vd [9, 12] was 0.04 L/kg. The clearance [9, 12] was 0.3 mL/min/kg, the “plasma concentration of released Docetaxel” value ([9]; DoceKA 20 mg/kg intravenously, at 0.083, 0.25 and 4 hours) was “below the limit of quantification” and the “AUC (tissue exposure) of DoceKA compared to Docetaxel” value ([9]; higher for DoceKA) was “about 29 fold”. The “Cmax of DoceKA compared to Docetaxel” value ([9]; higher, compared to Docetaxel (20 mg/kg)) was “about 18 fold”.
For `CC(=O)O[C@@]12CO[C@@H]1C[C@H](O)[C@@]1(C)C(=O)[C@H](O)C3=C(C)[C@@H](OC(=O)[C@H](O)[C@@H](NC(=O)OC(C)(C)C)c4ccccc4)C[C@@](O)([C@@H](OC(=O)c4ccccc4)[C@H]21)C3(C)C` [Docetaxel, docetaxel], the CL ([10]; Docetaxel 10 mg/kg, mice) is given as 35 mL/min/kg, the Vd ([10]; Docetaxel 10 mg/kg, mice) is given as 2.2 to 5 L/kg and the t½ adsorption distribution ([10]; Docetaxel 10 mg/kg, mice) is given as 7 min. For the same molecule, the t½ elimination ([10]; Docetaxel 10 mg/kg, mice) was 72 min, the “Reported Cmax” value ([10]; Docetaxel dosed at 20 mg/kg) was “about 20 μg/ml” and the Cmax ([10]; Docetaxel dosed at 20 mg/kg, read-out: Reported Cmax) was ~25 µM. For the same molecule, the neutrophils count ([2]; four days after a single injection at the maximum tolerable dose) was “drastic reduction in neutrophils count” and the pIC50 [11] was 9.17.
